The values below come from US20130096159A1, “INHIBITORS OF HUMAN 12-LIPOXYGENASE” (The United States of America, as represented the Secretary …, priority 2010, published 2013).

The target of this test is T1, recombinant human cPLA2 (Homo sapiens, UniProt P47712).
T1 sequence (P47712 1-749): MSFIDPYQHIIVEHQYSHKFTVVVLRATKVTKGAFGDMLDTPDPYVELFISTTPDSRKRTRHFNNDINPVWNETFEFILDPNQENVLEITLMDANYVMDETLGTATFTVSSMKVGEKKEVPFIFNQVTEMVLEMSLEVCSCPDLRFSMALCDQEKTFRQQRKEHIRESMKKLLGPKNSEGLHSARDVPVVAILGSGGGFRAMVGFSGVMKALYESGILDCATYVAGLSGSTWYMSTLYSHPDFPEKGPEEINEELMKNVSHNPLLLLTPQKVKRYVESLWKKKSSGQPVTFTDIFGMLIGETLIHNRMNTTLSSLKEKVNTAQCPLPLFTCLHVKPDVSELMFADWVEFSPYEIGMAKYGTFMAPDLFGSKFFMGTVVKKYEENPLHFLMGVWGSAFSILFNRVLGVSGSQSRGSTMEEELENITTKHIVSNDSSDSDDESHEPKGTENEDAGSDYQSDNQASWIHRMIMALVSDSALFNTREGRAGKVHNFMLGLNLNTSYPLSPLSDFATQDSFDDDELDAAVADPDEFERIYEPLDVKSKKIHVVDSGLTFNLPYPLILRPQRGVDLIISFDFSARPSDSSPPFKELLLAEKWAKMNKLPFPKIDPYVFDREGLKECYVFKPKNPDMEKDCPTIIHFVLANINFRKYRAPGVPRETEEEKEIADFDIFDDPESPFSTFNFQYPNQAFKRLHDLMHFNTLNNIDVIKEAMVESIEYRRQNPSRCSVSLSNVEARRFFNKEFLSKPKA
The test is described as follows: cPLA2 enzymatic activity assay. The class given is biochemical. To be noted: 50 μM, 5 min of incubation; FIG. 8. On the procedure:
A., et al., Biochemistry, 2011, 50: 1731-1738 with the following differences. The inhibitors in solution in DMSO were added at a final concentration of 50 μM right before the recombinant enzyme was added to initiate the reaction. After 5 min of incubation, the products of reaction were analyzed, and the results depicted in FIG. 8.

Take `CCC(=O)NC(c1cccs1)c1cc([N+](=O)[O-])c2cccnc2c1O` (stereo not shown) [Compound 1, N-((8-hydroxy-5-nitroquinolin-7-yl)(thiophen-2-yl)methyl)propionamide]: the “inhibition of cPLA2” value is on record as “did not inhibit cPLA2”.
